Measured values published in patent US5707979A, “Phosphinic acid derivatives, their preparation and their use” (Hoechst Aktiengesellschaft, priority 1994, dated 1998).

molecular target: HIV protease (Human immunodeficiency virus type 1 group M subtype B, UniProt P04585); test: Test for inhibition of the HIV protease; assay type: biochemical; conditions: carried out as described in EP 0 428 849 A2, read-out: IC50 (concentration at which the activity of the enzyme is halved)
Protocol: 24) Test for inhibition of the HIV protease
The test for inhibition of the HIV protease was carried out as described in EP 0 428 849 A2. The following IC50 values indicate the concentration at which the activity of the enzyme is halved;

Row | IC50 [µM] | SMILES
1 | 0.32 | O=C1N(Cc2ccc3ccccc3c2)[C@@H](Cc2ccccc2)P(=O)(O)[C@H](Cc2ccccc2)N1Cc1ccc2ccccc2c1 (relative stereo) [Example 19, 2,6-Dibenzyl-3,5-(2-naphthylmethyl)-1-hydroxy-3,5-diaza-4-oxophosphorinane-1-oxide (racemate composed of [2S,6S] and [2R,6R])]
2 | 0.24 | O=C1N(Cc2ccc(CO)cc2)[C@@H](Cc2ccccc2)P(=O)(O)[C@H](Cc2ccccc2)N1Cc1ccc(CO)cc1 (relative stereo) [Example 23, ([2R],[6S])-Dibenzyl-3,5-(4-hydroxymethylbenzyl)-1-hydroxy-3,5-diaza-4-oxophosphorinane-1-oxide (racemate composed of [2S,6S] and [2R,6R])]
3 | 50 | O=C1N(Cc2ccccc2)[C@@H](Cc2ccccc2)P(=O)(O)[C@@H](Cc2ccccc2)N1Cc1ccccc1 [Example 10, ([2R],3,5,[6S])-Tetrabenzyl-1-hydroxy-3,5-diaza-4-oxophosphorinone-1-oxide]
4 | 4.8 | O=C1N(Cc2ccc(CO)cc2)[C@@H](Cc2ccccc2)P(=O)(O)[C@@H](Cc2ccccc2)N1Cc1ccc(CO)cc1 [Example 12, ([2R],[6S])-Dibenzyl-3,5-(4-hydroxymethylbenzyl)-1-hydroxy-3,5-diaza-4-oxophosphorinone-1-oxide]
5 | 18 | O=C1N(Cc2ccc(CBr)cc2)[C@@H](Cc2ccccc2)P(=O)(O)[C@@H](Cc2ccccc2)N1Cc1ccc(CBr)cc1 [Example 13, ([2R],[6S])-Dibenzyl-3,5-(4-bromomethylbenzyl)-1-hydroxy-3,5-diaza-4-oxophosphorinone-1-oxide]
